According to patent publication US8835397B2, “Macrocyclic lactone tablet formulation” (Bayer New Zealand Ltd., priority 2006, dated 2014):

Assay: Abamectin blood plasma levels after raw active (no excipients) in gelatine capsule, sheep (Example 2)
Assay type: in vivo
Details: oral gelatine capsule, raw active without excipients, 0.2 mg/kg
Experimental: Given the results in Example 1, a further trial was completed to determine the influence of the formulation on the degree of absorption of abamectin. This was completed by ascertaining baseline levels of abamectin drug bioavailability when animals are dosed with raw active (no excipients).
Five sheep weighing 59.0 kg to 63.5 kg (mean=61.2 kg) were all dosed with one abamectin treatment, which contained a dose sufficient for a 60 kg animal at the standard dose rate of 0.2 mg/kg for abamectin. The abamectin dose was contained within a gelatine capsule.
Prior to administration of the invention or Reference formulation, all animals were dosed to their individual liveweight with SCANDA™ (Batch 52888, expiry April 2006) at least 14 days prior to each treatment session, and tested free of strongylid nematodes (via faecal egg count) prior to the commencement of each treatment session.
Gelatine capsules containing an abamectin drug (one capsule per sheep) were used. All animals were dosed orally with the assistance of a “pill popper”, which was followed immediately by approx 60 ml of tap water. The capsules were dark green in colour, to prevent the light sensitive abamectin from being prematurely exposed to light.
All animals were blood sampled seven times. […]

Substance: abamectin
- Abamectin blood plasma peak level: just above the detection threshold
